In patent publication US20240165226A1, “COMBINATION TREATMENT OF CD38-EXPRESSING TUMORS” (GENMAB A/S, priority 2006, published 2024):

Tested on: Daudi-luc tumor cells
Assay: In vivo SCID-luciferase experiments
Set-up: species or system SCID mice
Source text: In this model tumor cells are transfected with firefly luciferase. Upon administration of luciferin (Molecular Probes, Leiden, The Netherlands) to the mice the labeled cells can be detected in vivo by bioluminescent imaging using a highly sensitive CCD camera, cf. Wetterwald et al., American Journal of Pathology 160(3), 1143-1153 (2002).
Daudi cells were transfected with gWIZ luciferase from Gene Therapy Systems (San Diego, CA) and cultured in RPMI with 10% FCS, Pen/Strep, Sodium Pyruvate and 1 μg/ml puromycin (Sigma). Cells were analysed for luciferase expression (expressed in RLU/1×10^5 cells) in a luminometer and for CD38 expression by FACS. 2.5×10^6 luciferase-transfected Daudi cells/mouse were injected i.v. into SCID mice. Mice were treated with -003, -005, isotype control antibody (HuMab-KLH) or rituximab (anti-CD20 antibody). Antibodies were injected intraperitoneally. Four treatment settings were used (see Table 4). In the preventive setting, antibody (100 μg/mouse) and cells were administered simultaneously. In therapeutic setting I, antibody (300 μg/mouse) was administered 7 days after administration of cells. In therapeutic setting II, antibody (10 μg/mouse) was administered 14 days after administration of cells. In therapeutic setting III, antibody (100 μg/mouse) was administered 7 days after administration of cells. For imaging, mice were anesthetized by i.p. injection of a mixture of ketamine/xylazine/atropine. Synthetic D-Luciferin (sodium salt, Molecular Probes) was given i.p. at a dose of 25 mg/ml. Mice were then placed in a light tight box and after 3 min, imaging was started using a VersArray 1300B liquid nitrogen cooled CCD detector (Roper Scientific). Photons emitted from the luciferase were counted over an exposure period of 5 min. Under illumination black and white images were made for reference. MetaVue software (Universal Imaging Corp) was used for data collection and image analysis. Statistical significance of differences between groups was established using one-way analysis of variance with a Newman-Keuls post test using GraphPad PRISM version 3.02 (Graphpad Software Inc).

rituximab [anti-CD20 antibody, reference compound]
inhibition of growth of tumor cells (preventive setting, 100 μg/mouse, day 0, i.p.): inhibition observed
inhibition of growth of tumor cells (therapeutic setting I, 300 μg/mouse, day 7, i.p.): inhibition observed
